Experimental data as given in US20260356849A1, “COMPOUNDS AND METHODS FOR TREATING CANCERS” (CEDARS-SINAI MEDICAL CENTER, priority 2022, published 2026).

Tests used:
Type in all cases: cell-based
HepG2 cells = experiment: MTT assay in HepG2 cells; conditions: Homo sapiens
Experimental: (§1) The inventors identified nine inhibitors and perfomed an EdU assay after treating non-malignant (HEK293, AML12) and malignant (HepG2, MzChA-1, HT-29, RKO) cells with varying concentrations of GIT1 inhibitor for 24 hours (results are mean±SE from 3 independent experiments done in duplicates, *p<0.05 vs. DMSO). An MTT assay was also performed after treating primary human and mouse hepatocytes and liver and colon cancer cells with varying concentrations of GIT1 inhibitor for 24 hours (results are mean±SE from 3 independent experiments done in duplicates, *p<0.05 vs. DMSO). […] Percoll may be used to remove dead human hepatocytes.

human hepatocytes = experiment: Toxicity in human hepatocytes; conditions: data not shown
Experimental: as §1

mouse hepatocytes = experiment: Toxicity in mouse hepatocytes; conditions: data not shown
Experimental: as §1

RKO cells = experiment: MTT assay in RKO cells; conditions: Homo sapiens
Experimental: as §1

SMILES: CC1(C)Cc2nc3sc4c(=O)n(CC(=O)N5CCOCC5)cnc4c3cc2CO1 [Compound C33]
- IC50 (HepG2 cells): 0.83 µM
- toxicity in human hepatocytes (human hepatocytes): no toxicity
- toxicity in mouse hepatocytes (mouse hepatocytes): no toxicity
- IC50 (RKO cells): 0.98 µM

SMILES: COc1cccc(NC(=O)Cn2cnc3c(sc4nc5c(cc43)COC(C)(C)C5)c2=O)c1 [Compound C39]
- IC50 (HepG2 cells): > 25 µM
- IC50 (RKO cells): > 50 µM

SMILES: CC(=O)c1ccc(NC(=O)Cn2cnc3c(sc4nc5c(cc43)COC(C)(C)C5)c2=O)cc1 [Compound C38]
- IC50 (HepG2 cells): > 50 µM
- IC50 (RKO cells): > 25 µM
